Data reported in ChEMBL document CHEMBL1151521, “Balanced AT1 and AT2 angiotensin II antagonists. III. potent and orally active 5--ketosulfoxide imidazolyl biphenyl sulfonylureas” (Bioorg Med Chem Lett, 1995).

Columns and labels:
[1] = Concentration required for 50% inhibition of [125I]- AII binding to rabbit uterus membrane preparation (AT2); format: tissue-based, Oryctolagus cuniculus
[2] = target: T1, Angiotensin II receptor (AT-1) type-1 (Rattus norvegicus, UniProt P29089+P25095); experiment: Concentration required for 50% inhibition of [125I]- AII binding to rat liver membrane preparation (AT1)
T1 sequence (P29089 whole entry): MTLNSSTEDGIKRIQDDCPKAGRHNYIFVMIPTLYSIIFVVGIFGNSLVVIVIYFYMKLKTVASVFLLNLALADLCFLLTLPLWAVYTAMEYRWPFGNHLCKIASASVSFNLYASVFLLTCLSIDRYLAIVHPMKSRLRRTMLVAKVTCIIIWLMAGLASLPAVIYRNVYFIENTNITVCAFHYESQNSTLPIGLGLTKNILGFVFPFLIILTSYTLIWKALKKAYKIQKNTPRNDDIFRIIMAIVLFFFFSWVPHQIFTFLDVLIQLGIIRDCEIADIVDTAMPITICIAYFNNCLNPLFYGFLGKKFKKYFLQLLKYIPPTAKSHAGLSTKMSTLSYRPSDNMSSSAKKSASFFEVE
T1 sequence (P25095 whole entry): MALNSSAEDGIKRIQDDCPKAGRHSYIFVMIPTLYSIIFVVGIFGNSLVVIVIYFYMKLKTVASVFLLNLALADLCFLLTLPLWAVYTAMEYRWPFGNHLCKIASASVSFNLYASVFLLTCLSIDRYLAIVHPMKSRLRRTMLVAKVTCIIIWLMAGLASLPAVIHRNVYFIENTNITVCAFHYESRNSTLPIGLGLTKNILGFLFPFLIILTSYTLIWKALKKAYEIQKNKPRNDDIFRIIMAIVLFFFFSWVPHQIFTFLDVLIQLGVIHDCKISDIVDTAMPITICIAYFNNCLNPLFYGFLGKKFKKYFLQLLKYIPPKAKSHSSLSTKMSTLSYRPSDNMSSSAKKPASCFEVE

Rattus norvegicus [3] = experiment: Compound was evaluated in vivo, after intravenous administration for the inhibition of the pressor response induced by A II (0.75 ug/kg) in normotensive pithed rats; format: functional; conditions: read-out: ID50 (the source's name)
Rattus norvegicus [4] = experiment: Compound was evaluated in vivo, after peroral administration for the inhibition of the pressor response induced by A II (0.75 ug/kg) in normotensive pithed rats; format: functional; conditions: for ED50: Rattus norvegicus, po, read-out: ID50 (the source's name)

| SMILES | IC50 [1] | IC50 [2] | ED50 (Rattus norvegicus [3]) | ED50 (Rattus norvegicus [4]) | ID50 (Rattus norvegicus [4]) |
| --- | --- | --- | --- | --- | --- |
| CCCc1nc(SC)c(C(=O)C[S+]([O-])c2ccccc2)n1Cc1ccc(-c2ccccc2S(=O)(=O)NC(=O)NCc2ccccc2)cc1 (configuration not stated) | 2.8 nM | 0.08 nM | 0.04 mg/kg | 0.8 mg/kg |  |
| CCCCc1nc(SC)c(C(=O)O)n1Cc1ccc(-c2ccccc2S(=O)(=O)NC(=O)NCCC)cc1 | 920 nM |  |  |  |  |
| CCCc1nc(SC)c(C(=O)CSc2ccccc2)n1Cc1ccc(-c2ccccc2S(=O)(=O)NC(=O)NCc2ccccc2)cc1 | 93 nM | 0.2 nM |  |  |  |
| CCCCc1nc(SC)c(C(=O)CC(=O)OCC)n1Cc1ccc(-c2ccccc2S(=O)(=O)NC(=O)NCc2ccccc2)cc1 | 1 nM | 0.09 nM |  |  |  |
| CCCCc1nc(SC)c(C(=O)C[S+](C)[O-])n1Cc1ccc(-c2ccccc2S(=O)(=O)NC(=O)NCc2ccccc2)cc1 (configuration not stated) | 15 nM | 0.3 nM | 0.06 mg/kg | 0.7 mg/kg |  |
| CCCCc1nc(SC)c(C(=O)CS(=O)(=O)c2ccccc2)n1Cc1ccc(-c2ccccc2S(=O)(=O)NC(=O)NCc2ccccc2)cc1 | 1.7 nM | 0.04 nM | 0.02 mg/kg | > 3 mg/kg |  |
| CCCc1nc(SC)c(C(=O)C[S+]([O-])c2ccccc2)n1Cc1ccc(-c2ccccc2S(=O)(=O)NC(=O)NCc2cccs2)cc1 (configuration not stated) | 3.5 nM | 0.02 nM |  | 1.4 mg/kg |  |
| CCCCc1nc(SC)c(C(=O)CS(=O)(=O)c2ccc(F)cc2)n1Cc1ccc(-c2ccccc2S(=O)(=O)NC(=O)NCc2ccccc2)cc1 | 0.8 nM | 0.06 nM | 0.12 mg/kg | > 3 mg/kg |  |
| CCCc1nc(SC)c(C(=O)C[S+]([O-])c2ccccc2)n1Cc1ccc(-c2ccccc2S(=O)(=O)NC(=O)NCC2CCCC2)cc1 (configuration not stated) | 7 nM | 0.35 nM |  | > 3 mg/kg |  |
| CCCCc1nc(SC)c(C(C)(O)C(=O)O)n1Cc1ccc(-c2ccccc2S(=O)(=O)NC(=O)NCCC)cc1 (configuration not stated) | 8.2 nM |  |  |  |  |
| CCCCc1nc(SC)c(C(=O)C(CCC)S(=O)(=O)c2ccccc2)n1Cc1ccc(-c2ccccc2S(=O)(=O)NC(=O)NCc2ccccc2)cc1 (configuration not stated) | 180 nM | 1.8 nM |  |  |  |
| CCCCc1nc(SC)c(C(=O)CC(=O)c2ccccc2)n1Cc1ccc(-c2ccccc2S(=O)(=O)NC(=O)NCc2ccccc2)cc1 | 114 nM | 0.2 nM |  |  |  |
| CCCCc1nc(SC)c(C(=O)CS(C)(=O)=O)n1Cc1ccc(-c2ccccc2S(=O)(=O)NC(=O)NCc2ccccc2)cc1 | 5.8 nM | 0.08 nM | 0.04 mg/kg | 1.7 mg/kg |  |
| CCCc1nc(SC)c(C(=O)C[S+]([O-])c2ccc(C)cc2)n1Cc1ccc(-c2ccccc2S(=O)(=O)NC(=O)NCc2ccccc2)cc1 (single isomer, unassigned; 7h) | 4.2 nM | 0.03 nM |  |  | 1.5 mg/kg |
| CCCCc1nc(SC)c(C(=O)C[S+]([O-])c2ccccc2)n1Cc1ccc(-c2ccccc2S(=O)(=O)NC(=O)NCc2ccccc2)cc1 (configuration not stated) | 3 nM | 0.04 nM | 0.12 mg/kg | 1.6 mg/kg |  |
| CCc1nc(SC)c(C(=O)C[S+]([O-])c2ccccc2)n1Cc1ccc(-c2ccccc2S(=O)(=O)NC(=O)NCc2ccccc2)cc1 (configuration not stated) | 1.5 nM | 0.07 nM | 0.1 mg/kg | 2 mg/kg |  |
| CCCc1nc(SC)c(C(=O)CC#N)n1Cc1ccc(-c2ccccc2S(=O)(=O)NC(=O)NCc2ccccc2)cc1 | 110 nM | 0.3 nM |  |  |  |
| CCCc1nc(SC)c(C(=O)CS(=O)(=O)c2ccc(OC)cc2)n1Cc1ccc(-c2ccccc2S(=O)(=O)NC(=O)NCc2ccccc2)cc1 | 2.1 nM | 0.1 nM | 0.07 mg/kg | 2 mg/kg |  |
| CCCCc1nc(SC)c(C(=O)O)n1Cc1ccc(-c2ccccc2S(=O)(=O)NC(=O)NCc2ccccc2)cc1 | 17 nM |  |  |  |  |
| CCCc1nc(SC)c(C(=O)C[S+]([O-])c2ccccc2)n1Cc1ccc(-c2ccccc2S(=O)(=O)NC(=O)NCC2CCCCC2)cc1 (configuration not stated) | 4 nM | 0.3 nM |  | 3.1 mg/kg |  |
| CCCc1nc(SC)c(C(=O)CS(=O)(=O)c2ccccc2)n1Cc1ccc(-c2ccccc2S(=O)(=O)NC(=O)NCc2ccccc2)cc1 | 2.7 nM | 0.09 nM | 0.04 mg/kg | > 3 mg/kg |  |
| CCCc1nc(SC)c(C(C)=O)n1Cc1ccc(-c2ccccc2S(=O)(=O)NC(=O)NCc2ccccc2)cc1 | 30 nM | 0.08 nM |  |  |  |
| CCCc1nc(SC)c(C(=O)C[S+]([O-])c2ccc(C)cc2)n1Cc1ccc(-c2ccccc2S(=O)(=O)NC(=O)NCc2ccccc2)cc1 (single isomer, unassigned; 7g) | 1.4 nM | 0.07 nM | 0.03 mg/kg | 1.5 mg/kg |  |
